This is an account of results in patent publication US10787452B2 (Vertex Pharmaceuticals Incorporated, priority 2012, dated 2020).

This experiment concerns HCT116 colorectal cancer cells. The experiment is described as follows: Cisplatin sensitization assay (96 h cell viability MTS).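 Further: compound concentration needed to lower the Cisplatin-alone IC50 by a set fold.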 The format is cell-based. To be noted: 96 h MTS, compound plus Cisplatin. Summed up: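 Simultaneous addition of compound and cisplatin (2-fold series, top 10 μM final, full matrix), followed by 96 h culture at 37° C/5% CO2 and a 1 h MTS viability read.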
For the molecule `Nc1nn2cc(F)cnc2c1C(=O)Nc1cncc(F)c1N1CCC(C(=O)N2CC(N3CCC3)C2)CC1` [I-G-49, N-(4-(4-([1,3′-biazetidine]-1′-carbonyl)piperidin-1-yl)-5-fluoropyridin-3-yl)-2-amino-6-fluoropyrazolo[1,5-a]pyrimidine-3-carboxamide], the “Cisplatin Sensitization Assay” value is “+++ (Compounds with a Cisplatin sensitization value of <0.02 μM are marked with “+++.”)”.

For the molecule `C[C@@H]1CN(C(=O)C2CCN(c3c(F)cncc3NC(=O)c3c(N)nn4cc(F)cnc34)CC2)CCN1C` [I-G-50, (R)-2-amino-N-(4-(4-(3,4-dimethylpiperazine-1-carbonyl)piperidin-1-yl)-5-fluoropyridin-3-yl)-6-fluoropyrazolo[1,5-a]pyrimidine-3-carboxamide], the “Cisplatin Sensitization Assay” value is recorded as “+++ (Compounds with a Cisplatin sensitization value of <0.02 μM are marked with “+++.”)”.

In the case of `Nc1nn2cc(F)cnc2c1C(=O)Nc1cncc(F)c1N1CCC(C(=O)N2CC3CNCC3C2)CC1` (stereo not shown) [I-G-51, 2-amino-6-fluoro-N-(5-fluoro-4-(4-(octahydropyrrolo[3,4-c]pyrrole-2-carbonyl)piperidin-1-yl)pyridin-3-yl)pyrazolo[1,5-a]pyrimidine-3-carboxamide], the “Cisplatin Sensitization Assay” value is on record as “+++ (Compounds with a Cisplatin sensitization value of <0.02 μM are marked with “+++.”)”.

Consider `CN1C2CCC1CN(C(=O)C1CCN(c3c(F)cncc3NC(=O)c3c(N)nn4cc(F)cnc34)CC1)C2` [I-G-52, 2-amino-6-fluoro-N-(5-fluoro-4-(4-(8-methyl-3,8-diazabicyclo[3.2.1]octane-3-carbonyl)piperidin-1-yl)pyridin-3-yl)pyrazolo[1,5-a]pyrimidine-3-carboxamide], for which the “Cisplatin Sensitization Assay” value is on record as “+++ (Compounds with a Cisplatin sensitization value of <0.02 μM are marked with “+++.”)”.

Consider `CN1CC2CC1CN2C(=O)C1CCN(c2c(F)cncc2NC(=O)c2c(N)nn3cc(F)cnc23)CC1` (stereo not shown) [I-G-53, 2-amino-6-fluoro-N-(5-fluoro-4-(4-(5-methyl-2,5-diazabicyclo[2.2.1]heptane-2-carbonyl)piperidin-1-yl)pyridin-3-yl)pyrazolo[1,5-a]pyrimidine-3-carboxamide], for which the “Cisplatin Sensitization Assay” value is on record as “+++ (Compounds with a Cisplatin sensitization value of <0.02 μM are marked with “+++.”)”.

`CN1CCN(C(=O)C2(C)CCN(c3c(F)cncc3NC(=O)c3c(N)nn4cc(F)cnc34)CC2)CC1` [I-G-54, 2-amino-6-fluoro-N-(5-fluoro-4-(4-methyl-4-(4-methylpiperazine-1-carbonyl)piperidin-1-yl)pyridin-3-yl)pyrazolo[1,5-a]pyrimidine-3-carboxamide]: the “Cisplatin Sensitization Assay” value is reported as “+++ (Compounds with a Cisplatin sensitization value of <0.02 μM are marked with “+++.”)”.

For the molecule `Cc1cncc(NC(=O)c2c(N)nn3cc(F)cnc23)c1N1CCC(C(=O)N2CCN(C)CC2)CC1` [I-G-55, 2-amino-6-fluoro-N-(5-methyl-4-(4-(4-methylpiperazine-1-carbonyl)piperidin-1-yl)pyridin-3-yl)pyrazolo[1,5-a]pyrimidine-3-carboxamide], the “Cisplatin Sensitization Assay” value was “+++ (Compounds with a Cisplatin sensitization value of <0.02 μM are marked with “+++.”)”.

As for `Cc1cncc(NC(=O)c2c(N)nn3cc(F)cnc23)c1N1CCC(C(=O)N2CCNCC2)CC1` [I-G-56, 2-amino-6-fluoro-N-(5-methyl-4-(4-(piperazine-1-carbonyl)piperidin-1-yl)pyridin-3-yl)pyrazolo[1,5-a]pyrimidine-3-carboxamide], the “Cisplatin Sensitization Assay” value was “+++ (Compounds with a Cisplatin sensitization value of <0.02 μM are marked with “+++.”)”.

`Nc1nn2cc(F)cnc2c1C(=O)Nc1cncc(F)c1N1CCC(C(=O)N2CC(N3CCCCC3)C2)CC1` [I-G-57, 2-amino-6-fluoro-N-(5-fluoro-4-(4-(3-(piperidin-1-yl)azetidine-1-carbonyl)piperidin-1-yl)pyridin-3-yl)pyrazolo[1,5-a]pyrimidine-3-carboxamide]: the “Cisplatin Sensitization Assay” value is listed as “+++ (Compounds with a Cisplatin sensitization value of <0.02 μM are marked with “+++.”)”.

With `Nc1nn2cc(F)cnc2c1C(=O)Nc1cncc(F)c1N1CCC(C(=O)N2CC[C@H](N3CCCC3)C2)CC1` [I-G-58, (S)—N-(4-(4-([1,3′-bipyrrolidine]-1′-carbonyl)piperidin-1-yl)-5-fluoropyridin-3-yl)-2-amino-6-fluoropyrazolo[1,5-a]pyrimidine-3-carboxamide], the “Cisplatin Sensitization Assay” value was “+++ (Compounds with a Cisplatin sensitization value of <0.02 μM are marked with “+++.”)”.

Consider `Nc1nn2cc(F)cnc2c1C(=O)Nc1cncc(F)c1N1CCC(C(=O)N2CCC(N3CCCC3)CC2)CC1` [I-G-59, 2-amino-6-fluoro-N-(5-fluoro-4-(4-(4-(pyrrolidin-1-yl)piperidine-1-carbonyl)piperidin-1-yl)pyridin-3-yl)pyrazolo[1,5-a]pyrimidine-3-carboxamide], for which the “Cisplatin Sensitization Assay” value is “+++ (Compounds with a Cisplatin sensitization value of <0.02 μM are marked with “+++.”)”.

For the molecule `Nc1nn2cc(F)cnc2c1C(=O)Nc1cncc(F)c1N1CCC(C(=O)N2CCC(N3CCCCC3)CC2)CC1` [I-G-60, N-(4-(4-([1,4′-bipiperidine]-1′-carbonyl)piperidin-1-yl)-5-fluoropyridin-3-yl)-2-amino-6-fluoropyrazolo[1,5-a]pyrimidine-3-carboxamide], the “Cisplatin Sensitization Assay” value is “+++ (Compounds with a Cisplatin sensitization value of <0.02 μM are marked with “+++.”)”.

For the molecule `Nc1nn2cc(F)cnc2c1C(=O)Nc1cncc(F)c1N1CCC(C(=O)N2CCNC3CC32)CC1` (stereo not shown) [I-G-62, N-(4-(4-(2,5-diazabicyclo[4.1.0]heptane-2-carbonyl)piperidin-1-yl)-5-fluoropyridin-3-yl)-2-amino-6-fluoropyrazolo[1,5-a]pyrimidine-3-carboxamide], the “Cisplatin Sensitization Assay” value was “+++ (Compounds with a Cisplatin sensitization value of <0.02 μM are marked with “+++.”)”.

Consider `CC1(O)CN(C(=O)C2CCN(c3c(F)cncc3NC(=O)c3c(N)nn4cc(F)cnc34)CC2)C1` [I-G-63, 2-amino-6-fluoro-N-(5-fluoro-4-(4-(3-hydroxy-3-methylazetidine-1-carbonyl)piperidin-1-yl)pyridin-3-yl)pyrazolo[1,5-a]pyrimidine-3-carboxamide], for which the “Cisplatin Sensitization Assay” value is given as “+++ (Compounds with a Cisplatin sensitization value of <0.02 μM are marked with “+++.”)”.

As to `Nc1nn2cc(F)cnc2c1C(=O)Nc1cncc(F)c1N1CCC(C(=O)N2CCC(N3CCCCC3)C2)CC1` (stereo not shown) [I-G-64, 2-amino-6-fluoro-N-(5-fluoro-4-(4-(3-(piperidin-1-yl)pyrrolidine-1-carbonyl)piperidin-1-yl)pyridin-3-yl)pyrazolo[1,5-a]pyrimidine-3-carboxamide], the “Cisplatin Sensitization Assay” value is “+++ (Compounds with a Cisplatin sensitization value of <0.02 μM are marked with “+++.”)”.

Turning to `CN1CCN(C(=O)C2CCN(c3c(F)cncc3NC(=O)c3c(N)nn4cc(F)cnc34)CC2)C2CC21` (stereo not shown) [I-G-65, 2-amino-6-fluoro-N-(5-fluoro-4-(4-(5-methyl-2,5-diazabicyclo[4.1.0]heptane-2-carbonyl)piperidin-1-yl)pyridin-3-yl)pyrazolo[1,5-a]pyrimidine-3-carboxamide], the “Cisplatin Sensitization Assay” value is on record as “+++ (Compounds with a Cisplatin sensitization value of <0.02 μM are marked with “+++.”)”.

As to `Nc1nn2cc(F)cnc2c1C(=O)Nc1cncc(Cl)c1N1CCC(C(=O)N2CCN3CCC2CC3)CC1` [I-G-66, N-(4-(4-(1,4-diazabicyclo[3.2.2]nonane-4-carbonyl)piperidin-1-yl)-5-chloropyridin-3-yl)-2-amino-6-fluoropyrazolo[1,5-a]pyrimidine-3-carboxamide], the “Cisplatin Sensitization Assay” value is “+++ (Compounds with a Cisplatin sensitization value of <0.02 μM are marked with “+++.”)”.

On to `Nc1nn2cc(F)cnc2c1C(=O)Nc1cncc(F)c1N1CCC(C(=O)N2CCC(N3CCC3)CC2)CC1` [I-G-68, 2-amino-N-(4-(4-(4-(azetidin-1-yl)piperidine-1-carbonyl)piperidin-1-yl)-5-fluoropyridin-3-yl)-6-fluoropyrazolo[1,5-a]pyrimidine-3-carboxamide], for which the “Cisplatin Sensitization Assay” value is given as “+++ (Compounds with a Cisplatin sensitization value of <0.02 μM are marked with “+++.”)”.

Take `Nc1nn2cc(F)cnc2c1C(=O)Nc1cncc(Cl)c1N1CCC(C(=O)N2CCN3CCC2C3)CC1` (stereo not shown) [I-G-69, N-(4-(4-(1,4-diazabicyclo[3.2.1]octane-4-carbonyl)piperidin-1-yl)-5-chloropyridin-3-yl)-2-amino-6-fluoropyrazolo[1,5-a]pyrimidine-3-carboxamide]: the “Cisplatin Sensitization Assay” value is “+++ (Compounds with a Cisplatin sensitization value of <0.02 μM are marked with “+++.”)”.

In the case of `Nc1nn2cc(F)cnc2c1C(=O)Nc1cncc(F)c1N1CCC(C(=O)N2CC(F)(F)C2)CC1` [I-G-73, 2-amino-N-(4-(4-(3,3-difluoroazetidine-1-carbonyl)piperidin-1-yl)-5-fluoropyridin-3-yl)-6-fluoropyrazolo[1,5-a]pyrimidine-3-carboxamide], the “Cisplatin Sensitization Assay” value is recorded as “+++ (Compounds with a Cisplatin sensitization value of <0.02 μM are marked with “+++.”)”.

For the molecule `Nc1nn2cc(F)cnc2c1C(=O)Nc1cncc(F)c1N1CCC(C(=O)N2CC(F)C2)CC1` [I-G-74, 2-amino-6-fluoro-N-(5-fluoro-4-(4-(3-fluoroazetidine-1-carbonyl)piperidin-1-yl)pyridin-3-yl)pyrazolo[1,5-a]pyrimidine-3-carboxamide], the “Cisplatin Sensitization Assay” value is reported as “+++ (Compounds with a Cisplatin sensitization value of <0.02 μM are marked with “+++.”)”.

For `COC1(C)CN(C(=O)C2CCN(c3c(F)cncc3NC(=O)c3c(N)nn4cc(F)cnc34)CC2)C1` [I-G-75, 2-amino-6-fluoro-N-(5-fluoro-4-(4-(3-methoxy-3-methylazetidine-1-carbonyl)piperidin-1-yl)pyridin-3-yl)pyrazolo[1,5-a]pyrimidine-3-carboxamide], the “Cisplatin Sensitization Assay” value is listed as “+++ (Compounds with a Cisplatin sensitization value of <0.02 μM are marked with “+++.”)”.
